For 22 compounds, IC50 results are on record in US20220289685A1, “ANTIMALARIAL HEXAHYDROPYRIMIDINE ANALOGUES” (UCB BIOPHARMA SRL, priority 2019, published 2022).

Counter-ions that a name gives are not always drawn.

In one test the test system is Plasmodium falciparum 3D7 strain. In words: P. falciparum 3D7 asexual blood stage assay (SYBR green readout). The format is cell-based. The note with it: Plasmodium falciparum, 3D7, Erythrocyte, 72 h. A digest of the protocol: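 P. falciparum 3D7 in A+ erythrocytes (5% haematocrit, 0.5% parasitaemia) exposed 72 h at 37 °C under 1% O2/3% CO2 to 20-point 1.5-fold titrations, 50,000–15 nM in 0.5% DMSO. SYBR green lysis overnight, fluorescence 485/528 nm; normalized to mefloquine and DMSO, EC50 from biphasic two-site fit.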
For orientation: IC50 means the concentration that gives 50% inhibition. Turning to `C[C@@H]1C[C@H](N2C(=N)N[C@](C)(c3cccc(NC(=O)c4ncccn4)c3Cl)CC2=O)CCO1` (relative stereo) [Example 15, N-(2-Chloro-3-{(4S)-2-imino-4-methyl-1-[(2R*,4R*)-2-methyl-tetrahydropyran-4-yl]-6-oxo-hexahydropyrimidin-4-yl}phenyl)-pyrimidine-2-carboxamide hydrochloride], the IC50 came out at 37 nM. `Cc1cnc(C(=O)Nc2cccc([C@]3(C)CC(=O)N([C@@H]4CCO[C@H](C)C4)C(=N)N3)c2Cl)cn1` (relative stereo) [Example 34, N-(2-Chloro-3-{(4S)-2-imino-4-methyl-1-[(2R*,4R*)-2-methyl-tetrahydropyran-4-yl]-6-oxo-hexahydropyrimidin-4-yl]phenyl)-5-methylpyrazine-2-carboxamide trifluoroacetic acid salt] registered an IC50 of 60 nM. As for `C[C@H]1C[C@@H](N2C(=N)N[C@](C)(c3cccc(NC(=O)c4cccc(C#N)c4)c3Cl)CC2=O)CCC1(F)F` (relative stereo) [Example 26, N-(2-Chloro-3-{(4S)-1-[(1S*,3S*)-4,4-difluoro-3-methylcyclohexyl]-2-imino-4-methyl-6-oxohexahydro-pyrimidin-4-yl]phenyl)-3-cyano-benzamide trifluoroacetic acid salt], the IC50 amounted to 15 nM. Still for that read-out and setting: the same measure for `C[C@@H]1C[C@H](N2C(=N)N[C@](C)(c3cccc(NC(=O)c4cccc(Cl)c4)c3Cl)CC2=O)CCO1` (relative stereo) [Example 11, 3-Chloro-N-(2-chloro-3-{(4S)-2-imino-4-methyl-1-[(2R*,4R*)-2-methyltetrahydropyran-4-yl]-6-oxo-hexahydropyrimidin-4-yl]phenyl)-benzamide hydrochloride]: 9 nM.

Consider `C[C@@H]1C[C@H](N2C(=N)N[C@](C)(c3cccc(NC(=O)c4ccc(C(F)(F)F)cc4)c3Cl)CC2=O)CCO1` (relative stereo) [Example 37, N-(2-Chloro-3-{(4S)-2-imino-4-methyl-1-[(2R*,4R*)-2-methyl-tetrahydropyran-4-yl]-6-oxo-hexahydropyrimidin-4-yl}phenyl)-4-(trifluoromethyl)benzamide trifluoroacetic acid salt], for which 207 nM corresponded to half-maximal inhibition (IC50). Same read-out and setting: under `C[C@@H]1C[C@H](N2C(=N)N[C@](C)(c3cccc(NC(=O)c4cccc(C#N)n4)c3Cl)CC2=O)CCO1` (relative stereo) [Example 72, N-(2-Chloro-3-{(4S)-2-imino-4-methyl-1-[(2R*,4R*)-2-methyl-tetrahydropyran-4-yl]-6-oxo-hexahydropyrimidin-4-yl}phenyl)-6-cyanopyridine-2-carboxamide hydrochloride] stands 14 nM; under `Cc1cc(C(=O)Nc2cccc([C@]3(C)CC(=O)N([C@@H]4CCO[C@H](C)C4)C(=N)N3)c2Cl)c2nccn2c1` (relative stereo) [Example 28, N-(2-Chloro-3-{(4S)-2-imino-4-methyl-1-[(2R*,4R*)-2-methyl-tetrahydropyran-4-yl]-6-oxo-hexahydropyrimidin-4-yl}phenyl)-6-methylimidazo[1,2-a]pyridine-8-carboxamide trifluoroacetic acid salt], 24 nM. The same measure, in the same setting: under `C[C@@H]1C[C@H](N2C(=N)N[C@](C)(c3cccc(NC(=O)c4ccccc4Cl)c3Cl)CC2=O)CCO1` (relative stereo) [Example 12, 2-Chloro-N-(2-chloro-3-{(4S)-2-imino-4-methyl-1-[(2R*,4R*)-2-methyltetrahydropyran-4-yl]-6-oxo-hexahydropyrimidin-4-yl}phenyl)-benzamide hydrochloride] stands 23 nM; under `C[C@@H]1C[C@H](N2C(=N)N[C@](C)(c3cccc(NC(=O)c4cccc(-n5cccn5)c4)c3Cl)CC2=O)CCO1` (relative stereo) [Example 90, N-(2-Chloro-3-{(4S)-2-imino-4-methyl-1-[(2R*,4R*)-2-methyl-tetrahydropyran-4-yl]-6-oxo-hexahydropyrimidin-4-yl}phenyl)-3-(pyrazol-1-yl)benzamide trifluoroacetic acid salt], 23 nM.

`C[C@@H]1C[C@H](N2C(=N)N[C@](C)(c3cccc(NC(=O)c4cc(C(F)(F)F)ccc4F)c3Cl)CC2=O)CCO1` (relative stereo) [Example 83, N-(2-Chloro-3-{(4S)-2-imino-4-methyl-1-[(2R*,4R*)-2-methyl-tetrahydropyran-4-yl]-6-oxo-hexahydropyrimidin-4-yl}phenyl)-2-fluoro-5-(trifluoromethyl)-benzamide trifluoroacetic acid salt] had an IC50 of 18 nM. Compound `COc1ccncc1C(=O)Nc1cccc([C@]2(C)CC(=O)N([C@@H]3CCO[C@H](C)C3)C(=N)N2)c1Cl` (relative stereo) [Example 45, N-(2-Chloro-3-{(4S)-2-imino-4-methyl-1-[(2R*,4R*)-2-methyl-tetrahydropyran-4-yl]-6-oxo-hexahydropyrimidin-4-yl]phenyl)-4-methoxypyridine-3-carboxamide trifluoroacetic acid salt] displayed an IC50 of 156 nM. The same measure, in the same setting: under `CC#Cc1cncc(C(=O)Nc2cccc([C@]3(C)CC(=O)N([C@@H]4CCO[C@H](C)C4)C(=N)N3)c2Cl)c1` (relative stereo) [Example 108, N-(2-Chloro-3-{(4S)-2-imino-4-methyl-1-[(2R*,4R*)-2-methyl-tetrahydropyran-4-yl]-6-oxo-hexahydropyrimidin-4-yl}phenyl)-5-(prop-1-ynyl)pyridine-3-carboxamide hydrochloride] stands 40 nM.

The compound `C[C@@H]1C[C@H](N2C(=N)N[C@](C)(c3cccc(NC(=O)c4ccc(F)cn4)c3Cl)CC2=O)CCO1` (relative stereo) [Example 13, N-(2-Chloro-3-{(4S)-2-imino-4-methyl-1-[(2R*,4R*)-2-methyl-tetrahydropyran-4-yl]-6-oxo-hexahydropyrimidin-4-yl]phenyl)-5-fluoropyridine-2-carboxamide hydrochloride] yielded a half-inhibitory concentration (IC50) of 11 nM. Still for that read-out and setting: under `Cc1nccc(C(F)(F)F)c1C(=O)Nc1cccc([C@]2(C)CC(=O)N([C@@H]3CCO[C@H](C)C3)C(=N)N2)c1Cl` (relative stereo) [Example 111, N-(2-Chloro-3-{(4S)-2-imino-4-methyl-1-[(2R*,4R*)-2-methyl-tetrahydropyran-4-yl]-6-oxo-hexahydropyrimidin-4-yl}phenyl)-2-methyl-4-(trifluoromethyl)-pyridine-3-carboxamide hydrochloride] stands 418 nM. On the same count and under the same terms, the same measure for `C[C@@H]1C[C@H](N2C(=N)N[C@](C)(c3cccc(NC(=O)c4cnc5ccccc5c4)c3Cl)CC2=O)CCO1` (relative stereo) [Example 33, N-(2-Chloro-3-{(4S)-2-imino-4-methyl-1-[(2R*,4R*)-2-methyl-tetrahydropyran-4-yl]-6-oxo-hexahydropyrimidin-4-yl}phenyl)-quinoline-3-carboxamide trifluoroacetic acid salt]: 54 nM; for `C[C@@H]1C[C@H](N2C(=N)N[C@](C)(c3cccc(NC(=O)c4cc(F)cc(C#N)c4)c3Cl)CC2=O)CCO1` (relative stereo) [Example 99, N-(2-Chloro-3-{(4S)-2-imino-4-methyl-1-[(2R*,4R*)-2-methyl-tetrahydropyran-4-yl]-6-oxo-hexahydropyrimidin-4-yl}phenyl)-3-cyano-5-fluorobenzamide hydrochloride]: 18 nM.

The compound `Cc1ccnc(C(=O)Nc2cccc([C@]3(C)CC(=O)N([C@@H]4CCO[C@H](C)C4)C(=N)N3)c2Cl)n1` (relative stereo) [Example 78, N-(2-Chloro-3-{(4S)-2-imino-4-methyl-1-[(2R*,4R*)-2-methyl-tetrahydropyran-4-yl]-6-oxo-hexahydropyrimidin-4-yl}phenyl)-4-methylpyrimidine-2-carboxamide hydrochloride] gave an IC50 of 27 nM. The same measure, in the same setting: under `C[C@@H]1C[C@H](N2C(=N)N[C@](C)(c3cccc(NC(=O)c4cccc(Cl)c4F)c3Cl)CC2=O)CCO1` (relative stereo) [Example 97, 3-Chloro-N-(2-chloro-3-{(4S)-2-imino-4-methyl-1-[(2R* ,4R*)-2-methyltetrahydropyran-4-yl]-6-oxo-hexahydropyrimidin-4-yl]phenyl)-2-fluorobenzamide hydrochloride] stands 21 nM; under `C[C@@H]1C[C@H](N2C(=N)N[C@](C)(c3cccc(NC(=O)c4ccn(C)n4)c3Cl)CC2=O)CCO1` (relative stereo) [Example 8, N-(2-Chloro-3-{(4S)-2-imino-4-methyl-1-[(2R*,4R*)-2-methyl-tetrahydropyran-4-yl]-6-oxo-hexahydropyrimidin-4-yl}phenyl)-1-methylpyrazole-3-carboxamide hydrochloride], 260 nM. The same measure, in the same setting: the same measure for `Cc1ccc(C(=O)Nc2cccc([C@]3(C)CC(=O)N([C@@H]4CCO[C@H](C)C4)C(=N)N3)c2Cl)nn1` (relative stereo) [Example 54, N-(2-Chloro-3-{(4S)-2-imino-4-methyl-1-[(2R*,4R*)-2-methyl-tetrahydropyran-4-yl]-6-oxo-hexahydropyrimidin-4-yl}phenyl)-6-methylpyridazine-3-carboxamide hydrochloride]: 170 nM; for `C[C@@H]1C[C@H](N2C(=N)N[C@](C)(c3cccc(NC(=O)c4cc(C#N)cn4C)c3Cl)CC2=O)CCO1` (relative stereo) [Example 113, N-(2-Chloro-3-{(4S)-2-imino-4-methyl-1-[(2R*,4R*)-2-methyl-tetrahydropyran-4-yl]-6-oxo-hexahydropyrimidin-4-yl}phenyl)-4-cyano-1-methylpyrrole-2-carboxamide trifluoroacetic acid salt]: 5 nM.

Still in this test, the particulars now being: Plasmodium falciparum, Erythrocyte; P. falciparum 3D7 in human erythrocytes, 72 h incubation, SYBR green fluorescence; read-out: IC50.
Turning to `C[C@@H]1C[C@H](N2C(=N)N[C@](C)(c3cccc(NC(=O)c4ccc[n+]([O-])c4)c3Cl)CC2=O)CCO1` (relative stereo) [Example 112, N-(2-Chloro-3-{(4S)-2-imino-4-methyl-1-[(2R*,4R*)-2-methyl-tetrahydropyran-4-yl]-6-oxo-hexahydropyrimidin-4-yl]phenyl)-1-oxidopyridin-1-ium-3-carboxamide hydrochloride], the half-maximal inhibitory concentration (IC50) amounted to 707 nM.
